Values joined by “and” are separate entries in the source; they are usually repeats but may differ in a detail not shown here. Equal values may be shown once. Read-outs that look alike come from different tables or passages of the source.

In one assay the test system is LXFA-983L. The assay can be described thus: Combination 4 day growth assay (Cell TiterGlo), LXFA-983L. The assay is classed as cell-based. As to conditions: 96 h, single treatment, read-out: Absolute IC50. The method, then:
(§1) Cell lines for this study are obtained from ATCC and grown under ATCC recommended conditions, except for LXFA-983L, which is obtained from Oncotest/Charles Rivers Laboratories, Wilmington, Mass. and D122-96, which is obtained from L. Eisenbach (Weizman Institute of Science, Rehovot, Israel)—both grown under recommended conditions. […] The proliferation assay is performed as a 4 day growth assay using Cell TiterGlo® as the readout. Briefly, cells are plated in 96-well cell culture plates and allowed to adhere overnight at 37° C. The following day, cells are treated with compounds, either single treatments or combination treatments. First, the testing compounds are serially diluted in DMSO, followed by dilution into media as a 5× concentration with 1% DMSO, and finally added to cells in media to dilute to 1×. The cells are incubated at 37° C. for 4 more days. At the end of the incubation period, Cell TiterGlo® reagent is mixed and added to the wells. After 10 minutes, the luminescence is read by a Perkin Elmer Envision instrument. Absolute IC50 values generated by a 4-parameter logistics model for the single and combination treatments are generated, followed by combination indexes for each combination treatment and cell line. The combination IC50 values are adjusted based on the total concentration of each compound when added together. […] The combination index (CI) measures the degree to which the potency of a combination therapy differs from the expected-if-additive potency and is based on the Loewe definition of additivity.
(§2) [formula] Where • CAy and CBy are the concentrations of therapies A and B that produce an effect, y, when given in combination • ICAy and ICBy are the concentrations of A and B that produce an effect, y, when given individually The biological interpretation of the combination index is as follows: synergistic if the combination index <0.5, additive if the combination index is between 0.5 and 2, and antagonistic if the combination index is >2.

The subject of the next assay is H2122 xenograft. As to the kind of experiment: Anti-tumor growth activity, lung cancer H2122 xenograft mouse model. The assay is classed as in vivo. As to conditions: H2122 Lung; Abemaciclib 50 mg/kg QDx28. The method, then:
To evaluate in vivo target inhibition and anti-tumor efficacy of a compound, Human lung cancer cells, H358 or H2122 are implanted into nude mice xenograft tumor models. Either H358 or H2122 cells (10×10^6 in a 1:1 Matrigel® mix, 0.2 mL total volume) are implanted by subcutaneous injection in hind leg of nude female mice (Harlan Laboratories). A total of 5 mice each group are used for efficacy study, and a total of 3-4 mice each group are used for target engagement and PD study. Treatment is initiated with oral administration (gavage) of a test compound or vehicle (20% Captisol®, 25 mM phosphate, pH 2.0 in 0.2 mL volume when the tumor size reaches approximately […]. Tumor growth and body weight are monitored over time to evaluate efficacy and signs of toxicity. Bidimensional measurements of tumors are performed twice a week and tumor volumes are calculated based on mid-axis length and mid-axis width. Tumor volume data are transformed to a log scale to equalize variance across time and treatment groups. The log volume data are analyzed with a two-way repeated measures analysis of variance by time and treatment using the mixed procedures in SAS software (version 8.2). The correlation model for the repeated measures is spatial power. Treated groups are compared to the control group at each time point. The mixed procedure is also used separately for each treatment group to calculate adjusted means and standard errors at each time point. Both analyses account for the autocorrelation within each animal. The adjusted means and standard errors are plotted for each treatment group versus time.
H2122 lung tumor cells (10×10^6) are implanted by subcutaneous injection in hind leg of nude female mice (Taconic Biosciences). A total of 5 mice each group are used for efficacy study.

For a further assay, the system named is SW837. The assay can be described thus: Combination 4 day growth assay (Cell TiterGlo), SW837. The assay is classed as cell-based. Particulars: Homo sapiens, single treatment, read-out: Absolute IC50. The method, then: as §1, §2
For the next assay, the system named is Kyse-410. The assay can be described thus: Combination 4 day growth assay (Cell TiterGlo), KYSE-410. Particulars: Homo sapiens, single treatment, read-out: Absolute IC50. The assay is classed as cell-based. The method, then: (§3) Cell lines for this study are obtained from ATCC and grown under ATCC recommended conditions, except for LXFA-983L, which is obtained from Oncotest/Charles Rivers Laboratories, Wilmington, Mass. and D122-96, which is obtained from L. Eisenbach (Weizman Institute of Science, Rehovot, Israel)—both grown under recommended conditions. […] The proliferation assay is performed as a 4 day growth assay using Cell TiterGlo® as the readout. Briefly, cells are plated in 96-well cell culture plates and allowed to adhere overnight at 37° C. The following day, cells are treated with compounds, either single treatments or combination treatments. First, the testing compounds are serially diluted in DMSO, followed by dilution into media as a 5× concentration with 1% DMSO, and finally added to cells in media to dilute to 1×. The cells are incubated at 37° C. for 4 more days. At the end of the incubation period, Cell TiterGlo® reagent is mixed and added to the wells. After 10 minutes, the luminescence is read by a Perkin Elmer Envision instrument. Absolute IC50 values generated by a 4-parameter logistics model for the single and combination treatments are generated, followed by combination indexes for each combination treatment and cell line. The combination IC50 values are adjusted based on the total concentration of each compound when added together. […]
On the technique in general: Cellular ATP, detected with luciferase, serves as a proxy for viable cell number.

The test system of another assay is Calu-1. The assay can be described thus: Combination 4 day growth assay (Cell TiterGlo), Calu-1. The assay is classed as cell-based. Particulars: Homo sapiens, single treatment, read-out: Absolute IC50. The method, then: as §1, §2
The next assay relates to H2122. As to the kind of experiment: Combination 4 day growth assay (Cell TiterGlo), H2122. The assay is classed as cell-based. As to conditions: Homo sapiens, NCI-H2122, 96 h, single treatment, read-out: Absolute IC50. The method, then: as §1, §2
For the next assay, the system named is H2030. As to the kind of experiment: Combination 4 day growth assay (Cell TiterGlo), H2030. The assay is classed as cell-based. As to conditions: Homo sapiens, NCI-H2030, 96 h, single treatment, read-out: Absolute IC50. The method, then: as §3
For the next assay, the system named is UM-UC-3. As to the kind of experiment: Combination 4 day growth assay (Cell TiterGlo), UM-UC-3. The assay is classed as cell-based. Particulars: Homo sapiens, UMUC3, 96 h, single treatment, read-out: Absolute IC50. The method, then:
as §1, §2

The next assay deals with SW837 xenograft. As to the kind of experiment: Anti-tumor growth activity, SW837 colorectal xenograft. The assay is classed as in vivo. As to conditions: Abemaciclib 50 mg/kg QDx28.
The next assay deals with SW756. The assay can be described thus: Combination 4 day growth assay (Cell TiterGlo), SW756. The assay is classed as cell-based. Particulars: Homo sapiens, single treatment, read-out: Absolute IC50. The method, then: as §3
Another assay relates to D122-96. As to the kind of experiment: Combination 4 day growth assay (Cell TiterGlo), D122-96. The assay is classed as cell-based. Particulars: Mus musculus, 96 h, single treatment, read-out: Absolute IC50. The method, then: as §1, §2
The next assay concerns SW1463 xenograft. The assay can be described thus: Anti-tumor growth activity, SW1463 colorectal xenograft. The assay is classed as in vivo. As to conditions: Abemaciclib 50 mg/kg QDx28.
The test system of the next assay is SW1463. The assay can be described thus: Combination 4 day growth assay (Cell TiterGlo), SW1463. The assay is classed as cell-based. As to conditions: Homo sapiens, single treatment, read-out: Absolute IC50. The method, then:
as §1, §2

For a further assay, the system named is MIA Paca-2. As to the kind of experiment: Combination 4 day growth assay (Cell TiterGlo), MIA Paca-2. Particulars: Homo sapiens, single treatment, read-out: Absolute IC50. The assay is classed as cell-based. The method, then: as §1, §2
Another assay deals with SW1573. As to the kind of experiment: Combination 4 day growth assay (Cell TiterGlo), SW1573. The assay is classed as cell-based. As to conditions: Homo sapiens, 96 h, single treatment, read-out: Absolute IC50. The method, then: as §1, §2
The subject of the next assay is H1792. As to the kind of experiment: Combination 4 day growth assay (Cell TiterGlo), H1792. As to conditions: Homo sapiens, NCI-H1792, 96 h, single treatment, read-out: Absolute IC50. The assay is classed as cell-based. The method, then: as §3
The next assay has as its system MiaPaca-2 xenograft. The assay can be described thus: Anti-tumor growth activity, MiaPaca-2 pancreatic xenograft. The assay is classed as in vivo. As to conditions: Abemaciclib 50 mg/kg QDx28.
The next assay concerns H23. As to the kind of experiment: Combination 4 day growth assay (Cell TiterGlo), H23. The assay is classed as cell-based. Particulars: Homo sapiens, NCI-H23, 96 h, single treatment, read-out: Absolute IC50. The method, then:
as §1, §2

A further assay concerns H1373. The assay can be described thus: Combination 4 day growth assay (Cell TiterGlo), H1373. The assay is classed as cell-based. As to conditions: Homo sapiens, NCI-H1373, 96 h, single treatment, read-out: Absolute IC50. The method, then:
as §3

The subject of a further assay is H358. As to the kind of experiment: Combination 4 day growth assay (Cell TiterGlo), H358. The assay is classed as cell-based. Particulars: Homo sapiens, NCI-H358, 96 h, single treatment, read-out: Absolute IC50. The method, then: as §1, §2
Another assay relates to EL3187 (PDX). The assay can be described thus: Anti-tumor growth activity, EL3187 lung PDX. The assay is classed as in vivo. As to conditions: EL3187 Lung PDX; Erlotinib 25 mg/kg QDx28.

With `CCN1CCN(Cc2ccc(Nc3ncc(F)c(-c4cc(F)c5nc(C)n(C(C)C)c5c4)n3)nc2)CC1` [Abemaciclib, abemaciclib], the half-inhibitory concentration (IC50) with LXFA-983L is over 10000 nM; in the assay with SW837 (96 h) it was 3590 nM; in the assay on Kyse-410 (96 h) it was 3010 nM; in the assay with Calu-1 (96 h), over 10000 nM; in the assay on H2122, 548 nM; in the assay with H2030 it was 9030 nM. Further, the IC50 is 1720 nM with UM-UC-3; 4980 nM in the assay on SW756 (96 h); 5050 nM in the assay on D122-96; 328 nM in the assay with SW1463 (96 h); 755 nM in the assay with MIA Paca-2 (96 h); 996 nM with SW1573. Moreover, the half-maximal inhibitory concentration (IC50) was 1100 nM in the assay with H1792, 4970 nM in the assay on H23, over 10000 nM with H1373 and 1230 nM in the assay with H358. Further, the “Tumor Growth Inhibition (%) or Regression (−%)” value in the assay with H2122 xenograft was 79.3 and 79.1. The results for the “In Vivo Anti-Tumor Activities” value with SW837 xenograft, in the assay on SW1463 xenograft and in the assay on MiaPaca-2 xenograft were −2.13, 55.1 and 46.88, respectively.
Consider `C#Cc1cccc(Nc2ncnc3cc(OCCOC)c(OCCOC)cc23)c1` [Erlotinib, erlotinib], for which the half-inhibitory concentration (IC50) with LXFA-983L (LXFA 983L) is 2820 nM; in the assay on SW837 (SW837, 96 h) it was over 10000 nM; with Kyse-410 (KYSE-410, 96 h), 469 nM; with Calu-1 (Calu-1, 96 h) it was over 10000 nM; in the assay with H2122 it was 352 nM; in the assay with H2030, 1480 nM. Further, the half-maximal inhibitory concentration (IC50) was over 10000 nM in the assay with UM-UC-3; over 10000 nM in the assay with SW756 (SW756, 96 h); over 10000 nM in the assay on D122-96; 446 nM in the assay with SW1463 (SW1463, 96 h); over 10000 nM in the assay on MIA Paca-2 (MIA PaCa-2, 96 h); over 10000 nM with SW1573. In addition, the IC50 is over 10000 nM in the assay on H1792, over 10000 nM in the assay on H23, over 10000 nM in the assay on H1373 and 247 nM in the assay on H358. Also, in the assay on EL3187 (PDX), the “In Vivo Anti-Tumor Activities” value is recorded as 7.8.

As a reminder, the IC50 is the concentration that inhibits the measured activity by half.

(Values after patent US10968214B2, “KRas G12C inhibitors” (Eli Lilly and Company, priority 2018, dated 2021).)
